Data from patent US10183949B2, “Pyrimidinone derivative having autotaxin-inhibitory activity” (The University of Tokyo, priority 2014, dated 2019).

target: T1, Human autotaxin enzyme (Homo sapiens, UniProt Q13822); test: Evaluation of autotaxin inhibitor, 18:0 Lyso PC / choline assay (Test Example 2); format: biochemical; settings: autotaxin inhibition, IC50 class; read-out: Inhibitor activity
T1 construct: purchased R&D System
Outline: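 Human autotaxin in 100 mM Tris-HCl pH 7.5, 150 mM NaCl, 5 mM MgCl2, 0.05% Triton X-100 reacted with 18:0 Lyso PC (200 μM stock) and test compound 2 h at room temperature. Released choline quantified via choline oxidase/peroxidase resorufin fluorescence (ex 531/em 598 nm, 20 min); inhibition vs no-compound and no-enzyme controls, concentration-response curve.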

IC50 [nM]	Compound
≥ 1000	N#CC1(NC(=O)Cn2c(CCCC(F)(F)F)nc(N3CCC(C(F)(F)F)CC3)c(F)c2=O)CC1 [Compound I-0241]
100 to 1000	N#CC1(NC(=O)Cn2c(OCCC(F)(F)F)nc(-c3ccc(Cl)cc3)cc2=O)CC1 [Compound I-0242]
≥ 1000	CC(=O)Nc1cc(Cl)ccc1-c1cc(=O)n(CC(=O)O)cn1 [Compound I-0246]
10 to 100	CC(=O)Nc1cc(Cl)ccc1-c1cc(=O)n(CC(=O)NC2(C#N)CC2)c(C)n1 [Compound I-0248]
10 to 100	CSc1nc(-c2ccc(Cl)cc2NC(C)=O)cc(=O)n1CC(=O)NC(C)(C)C [Compound I-0251]

Continued, compound first:

Compound	IC50 [nM]
CSc1nc(-c2ccc(Cl)cc2NC(C)=O)cc(=O)n1CC(=O)NC1(C#N)CC1 [Compound I-0243]	10 to 100
CC(=O)Nc1cc(Cl)ccc1-c1cc(=O)n(CC(=O)OC(C)(C)C)cn1 [Compound I-0244]	10 to 100
CC(=O)Nc1cc(Cl)ccc1-c1cc(=O)n(CC(=O)OC(C)(C)C)c(C)n1 [Compound I-0245]	< 10
CC(=O)Nc1cc(Cl)ccc1-c1cc(=O)n(CC(=O)O)c(C)n1 [Compound I-0247]	≥ 1000
CC(=O)Nc1cc(Cl)ccc1-c1cc(=O)n(CC(=O)NC2(C#N)CC2)cn1 [Compound I-0249]	100 to 1000
CSc1nc(-c2ccc(Cl)cc2NC(C)=O)cc(=O)n1CC(=O)NCC(C)(C)O [Compound I-0250]	10 to 100
CSc1nc(-c2ccc(Cl)cc2NC(C)=O)cc(=O)n1CC(=O)NC(C)(C)CO [Compound I-0252]	10 to 100
COC(=O)Cn1c(CCCC(F)(F)F)nc(-c2ccc(C(F)(F)F)nc2)cc1=O [Compound I-0253]	100 to 1000
COC(=O)Cn1c(CCCC(F)(F)F)nc(-c2ccc(C(F)(F)F)cc2)cc1=O [Compound I-0254]	10 to 100
O=C(O)Cn1c(CCCC(F)(F)F)nc(-c2ccc(C(F)(F)F)cc2)cc1=O [Compound I-0255]	≥ 1000
CCc1nc(-c2ccc(Cl)cc2NC(C)=O)cc(=O)n1CC(=O)NC1(C#N)CC1 [Compound I-0256]	10 to 100
N#CC1(NC(=O)Cn2c3nc(cc2=O)-c2ccc(Cl)cc2NC(=O)/C=C/CCO3)CC1 [Compound I-0257]	10 to 100

same assay, conditions: human autotaxin enzyme, 18:0 Lyso PC substrate, choline assay, room temperature 2 hours; read-out: Inhibitor activity (IC50)

IC50 [nM]	Compound
10 to 100	O=C1CCC(CNC(=O)c2cccc(Cn3c(CCCC(F)(F)F)nc(-c4ccc(Cl)cc4)cc3=O)c2)CN1 (centres unmarked) [Compound I-0196]
100 to 1000	CCCNc1nc(-c2ccc(Cl)cc2NC(C)=O)cc(=O)n1Cc1ccccc1 [Compound I-0202]
10 to 100	CCCCCc1nc(-c2ccc(Cl)cc2NC(C)=O)cc(=O)n1CC(=O)NC1(C#N)CC1 [Compound I-0205]
≥ 1000	N#CC1(NC(=O)Cn2c(CCC(F)(F)F)nc(-c3ccc(Cl)cc3)cc2=O)CC1 [Compound I-0207]
≥ 1000	CCCCCc1nc(OC2CCC(C#N)CC2)cc(=O)n1CC(=O)NC1(C#N)CC1 (centres unmarked) [Compound I-0208]
10 to 100	O=C(Cn1c(COCC(F)(F)F)nc(-c2ccc(Cl)cc2)cc1=O)NCC1(CO)CC1 [Compound I-0211]
100 to 1000	O=C(Cn1c(COCC2CC2)nc(-c2ccc(Cl)cc2)cc1=O)NCC1(CO)CC1 [Compound I-0212]
100 to 1000	CCCOCc1nc(-c2ccc(Cl)cc2)cc(=O)n1CC(=O)NCC(C)(C)O [Compound I-0213]
100 to 1000	CC(C)(O)CNC(=O)Cn1c(COCC2CC2)nc(-c2ccc(Cl)cc2)cc1=O [Compound I-0214]
10 to 100	N#CC1(NC(=O)Cn2c(CCCC(F)(F)F)nc(N3CCC(C(F)(F)F)CC3)cc2=O)CC1 [Compound I-0217]
100 to 1000	CCOCCc1nc(-c2ccc(Cl)cc2)cc(=O)n1CC(=O)NCC(C)(C)O [Compound I-0222]
100 to 1000	CNc1cc(Cl)ccc1-c1cc(=O)n(CC(=O)NC2(C#N)CC2)c(CCCC(F)(F)F)n1 [Compound I-0224]
< 10	N#CC1(NC(=O)Cn2c(CCCC(F)(F)F)nc(-c3ccc(C(F)(F)F)cc3)cc2=O)CC1 [Compound I-0225]
< 10	N#Cc1ccc(-c2cc(=O)n(CC(=O)NC3(C#N)CC3)c(CCCC(F)(F)F)n2)cc1 [Compound I-0227]
100 to 1000	COCCCc1nc(-c2ccc(Cl)cc2)cc(=O)n1CC(=O)NCC(C)(C)O [Compound I-0230]
100 to 1000	COCCCc1nc(-c2ccc(Cl)cc2)cc(=O)n1CC(=O)NCC1(CO)CC1 [Compound I-0231]
< 10	N#CC1(NC(=O)Cn2c(CCCC(F)(F)F)nc(C3=CCC(C(F)(F)F)CC3)cc2=O)CC1 (centres unmarked) [Compound I-0232]
≥ 1000	CC1(C)CN(c2cc(=O)n(CC(=O)NC3(C#N)CC3)c(CCCC(F)(F)F)n2)C1 [Compound I-0236]
100 to 1000	COC1CCN(c2cc(=O)n(CC(=O)NC3(C#N)CC3)c(CCCC(F)(F)F)n2)CC1 [Compound I-0238]
100 to 1000	CC(C)CC1CCN(c2cc(=O)n(CC(=O)NC3(C#N)CC3)c(CCCC(F)(F)F)n2)C1 (centres unmarked) [Compound I-0240]
100 to 1000	Cc1nc(C2=CCC(C(F)(F)F)CC2)cc(=O)n1CC(=O)NC1(C#N)CC1 (centres unmarked) [Compound I-0261]
< 10	COC(=O)Nc1cc(C#N)ccc1-c1cc(=O)n(CC(=O)OC(C)(C)C)c(C)n1 [Compound I-0263]
10 to 100	COC(=O)Nc1cc(Cl)ccc1-c1cc(=O)n(CC(=O)NC(C)(C)C)c(C)n1 [Compound I-0265]
< 10	COC(=O)Nc1cc(Cl)ccc1-c1cc(=O)n(CC(=O)OC(C)(C)C)c(C)n1 [Compound I-0266]
≥ 1000	Cc1nc(C2=CCC(C(F)(F)F)CC2)cc(=O)n1CC(=O)NCC1(CO)COC1 (centres unmarked) [Compound I-0268]

More lines, now with the values behind:

Compound	IC50 [nM]
O=C(NCC1(CO)COC1)c1cccc(Cn2c(CCCC(F)(F)F)nc(-c3ccc(Cl)cc3)cc2=O)c1 [Compound I-0194]	100 to 1000
O=C(c1cccc(Cn2c(CCCC(F)(F)F)nc(-c3ccc(Cl)cc3)cc2=O)c1)N1CCC2(COC2)C1 [Compound I-0195]	< 10
O=C(c1cccc(Cn2c(CCCC(F)(F)F)nc(-c3ccc(Cl)cc3)cc2=O)c1)N(CCO)CCO [Compound I-0197]	100 to 1000
O=C(c1cccc(Cn2c(CCCC(F)(F)F)nc(-c3ccc(Cl)cc3)cc2=O)c1)N(CCO)Cc1ccccc1 [Compound I-0198]	100 to 1000
C[C@@H]1COC[C@H](C)N1C(=O)c1cccc(Cn2c(CCCC(F)(F)F)nc(-c3ccc(Cl)cc3)cc2=O)c1 [Compound I-0199]	10 to 100
CCCOCc1nc(-c2ccc(Cl)cc2)cc(=O)n1CC(=O)NC1(C#N)CC1 [Compound I-0203]	100 to 1000
CCCOCc1nc(-c2ccc(Cl)cc2)cc(=O)n1CC(=O)NC1(CO)CC1 [Compound I-0204]	100 to 1000
CC(C)(C)OC(=O)Cn1c(CCCC(F)(F)F)nc(-c2ccc(Cl)cc2)cc1=O [Compound I-0206]	< 10
N#CC1(NC(=O)Cn2c(COCC3CC3)nc(-c3ccc(Cl)cc3)cc2=O)CC1 [Compound I-0209]	10 to 100
N#CC1(NC(=O)Cn2c(COCC(F)(F)F)nc(-c3ccc(Cl)cc3)cc2=O)CC1 [Compound I-0210]	10 to 100
CC(C)(O)CNC(=O)Cn1c(COCC(F)(F)F)nc(-c2ccc(Cl)cc2)cc1=O [Compound I-0215]	10 to 100
CC(C)(C)OC(=O)Cn1c(CCC(F)(F)F)nc(-c2ccc(Cl)cc2)cc1=O [Compound I-0216]	100 to 1000
N#CC1(NC(=O)Cn2c(CCCC(F)(F)F)nc(-c3ccc(Cl)cc3)c(F)c2=O)CC1 [Compound I-0218]	100 to 1000
N#CC1(NC(=O)Cn2c(CCCC(F)(F)F)nc(N3CCC(Cc4ccccc4)C3)cc2=O)CC1 (centres unmarked) [Compound I-0219]	100 to 1000
N#CCc1cc(OC(F)(F)F)ccc1-c1cc(=O)n(CC(=O)NC2(C#N)CC2)c(CCCC(F)(F)F)n1 [Compound I-0220]	10 to 100
CCOCCc1nc(-c2ccc(Cl)cc2)cc(=O)n1CC(=O)NC1(C#N)CC1 [Compound I-0221]	10 to 100

Compound	IC50 [nM]
CCOCCc1nc(-c2ccc(Cl)cc2)cc(=O)n1CC(=O)NCC1(CO)CC1 [Compound I-0223]	100 to 1000
N#CC1(NC(=O)Cn2c(CCCC(F)(F)F)nc(-c3ccc(Cl)cc3O)cc2=O)CC1 [Compound I-0226]	100 to 1000
N#CC1(NC(=O)Cn2c(CCCC(F)(F)F)nc(-c3ccc(Cl)cc3F)cc2=O)CC1 [Compound I-0228]	< 10
COCCCc1nc(-c2ccc(Cl)cc2)cc(=O)n1CC(=O)NC1(C#N)CC1 [Compound I-0229]	100 to 1000
N#CC1(NC(=O)Cn2c(CCCC(F)(F)F)nc(-c3ccc(C(F)(F)F)nc3)cc2=O)CC1 [Compound I-0233]	10 to 100
N#CC1(NC(=O)Cn2c(CCCC(F)(F)F)nc(-c3c(F)cc(Cl)cc3F)cc2=O)CC1 [Compound I-0234]	10 to 100
N#Cc1ccc(-c2cc(=O)n(CC(=O)NC3(C#N)CC3)c(CCCC(F)(F)F)n2)c(F)c1 [Compound I-0235]	< 10
N#CC1(NC(=O)Cn2c(CCCC(F)(F)F)nc(N3CCC(F)(F)CC3)cc2=O)CC1 [Compound I-0237]	100 to 1000
CC(C)(C)N1CCN(c2cc(=O)n(CC(=O)NC3(C#N)CC3)c(CCCC(F)(F)F)n2)CC1 [Compound I-0239]	≥ 1000
Cc1nc(-c2ccc(C#N)cc2NC(=O)C2CC2)cc(=O)n1CC(=O)O [Compound I-0258]	≥ 1000
Cc1nc(-c2ccc(Cl)cc2NC(=O)C2CC2)cc(=O)n1CC(=O)O [Compound I-0259]	≥ 1000
Cc1nc(-c2ccc(C#N)cc2NC(=O)C(C)(C)C)cc(=O)n1CC(=O)O [Compound I-0260]	≥ 1000
Cc1nc(C2=CCC(C(F)(F)F)CC2)cc(=O)n1Cc1cccc(C(=O)O)c1 (centres unmarked) [Compound I-0262]	100 to 1000
O=C(O)Cn1c(CCCC(F)(F)F)nc(-c2ccc(Cl)cc2CO)cc1=O [Compound I-0264]	≥ 1000
CC(=O)Nc1cc(Cl)ccc1-c1cc(=O)n(Cc2cccc(C(=O)O)c2)c(C)n1 [Compound I-0267]	< 10
COC(=O)Nc1cc(Cl)ccc1-c1cc(=O)n(CC(=O)N(C)C(C)(C)C)c(C)n1 [Compound I-0269]	10 to 100
